{"source": "patent US20070123467A1", "about": "“Amniotic-derived peptide and uses thereof” (priority 2003, published 2007)", "key": {"CD4+CD25− T cells": {"test_system": "CD4+CD25− T cells", "assay": "T cell proliferation assay, thymidine incorporation (Example 21)", "type": "cell-based, Balb/c mouse", "description": "T cell proliferation assays were set up as follows. Antigen presenting cells (APCs) obtained as single cell suspension from Balb/c mouse spleens were pulsed with fecal extract (from Balb/C mice) overnight in 24 well-plate (1×10^6 cells/ml with 400 μg/ml of extract). Responding cells were obtained from Balb/c mouse spleens as CD4^+CD25^− T cells. CD4+ T cells were selected by DYNABEADS, and CD4^+CD25^− T cells were then selected using labelled anti-CD25 antibody (e.g. PE-labelled anti-CD25). Responding T cells were co-cultured with APC in 96 round bottom well-plate (3.3×10^4 responding cell/1×10^5 APC in 200 μl) in the presence or absence of LAP for 5 days. Immune cell proliferation was then determined by standard thymidine incorporation assays."}, "IL-10": {"test_system": "IL-10", "assay": "Blood levels of IL-10, ELISA (Example 14)", "type": "in vivo, mouse", "description": "(§1) Plasma samples were obtained by blood obtained from individual mice at sacrifice. TNF-α, IFN-γ and IL-10 were measured by mouse specific solid-phase ELISA according to the manufacturer's (Celbio Euroclone, Milan, Italy) instructions. Intra and inter-assays coefficient of variations were within 10%. The limit of sensitivity of the assays were 7 pg/ml. For statistical analysis, samples with undetectable amounts of cytokine were assigned 7 pg as theoretical value.\n(§2) Injection of LPS is associated with a marked increase in the blood levels of both type 1 (IFN-γ, TNF-α, IL-1) and type 2 (IL-10) cytokines that occurs with different kinetic after the inoculation of the toxin. To evaluate the effects of LAP treatment on LPS-induced cytokine increase in the circulation of the mice, experiments were carried out where mice treated with 10 mcg LAP or its vehicle, were sacrificed just before injection of a sublethal dose of LPS one hour after treatment with either LAP or PBS (T0) and then 2 (T2) and 8 (T8) hours after LPS."}, "TNF-α": {"test_system": "TNF-α", "assay": "LPS-induced blood levels of TNF-α, ELISA (Example 14)", "type": "in vivo, mouse", "conditions": "10 mcg LAP", "description": "as §1, §2"}, "Con A-induced hepatitis": {"test_system": "Con A-induced hepatitis", "assay": "Con A-induced hepatitis in mice, plasma ALAT, LAP prophylaxis (Example 15)", "type": "in vivo, CD1 male mice", "description": "Eight weeks old outbred CD1 male mice (Charles River, Calco, Italy) were kept under standard laboratory conditions (non-specific pathogen free) at 24° C. with free access to food and water. The food was withdrawn 16 hours prior to the experiments.\nCon A (Sigma Chemical, St. Louis, Mo.), dissolved in sterile phosphate-buffered saline (PBS) was injected into the tail veins. The groups were treated with either LAP (dissolved volume/volume in trifluoroacetic acid 0.1% in water and Na2HPO4 and then further diluted in water for injection), or its vehicle, 1 hour prior to and one hour after Con A. An additional group of control mice was injected with Con A and received no treatment. Finally, other two groups of mice were also included for comparison that were either injected i.v. with PBS or received no treatment (Table 8). LAP, its vehicle, PBS and Con A were all injected in a final volume of 100 microliter (mcl). The animals were sacrificed for blood collection 8 hours after Con A injection, when biochemical and signs (transaminases increase) of hepatic injury are pronounced (15-1 to 15-9). Mice dead before sacrifice (Table 8) were not included.\nPlasma alanine aminotransferase (ALAT) activity was determined by a standard photometric assay using a bichromatic analyzer. Results are expressed in U/L\nResults are shown as mean values ±SD. Statistical analysis was performed by one way ANOVA. The effect of LAP was considered to be statistically significant when the difference of ALAT blood levels versus controls yields a p value at least lower than 0.05."}, "IFN-γ": {"test_system": "IFN-γ", "assay": "LPS-induced blood levels of IFN-γ, ELISA (Example 14)", "type": "in vivo, mouse", "conditions": "10 mcg LAP; 2 and 8 hours after LPS", "description": "as §1, §2"}, "LPS-induced lethality": {"test_system": "LPS-induced lethality", "assay": "Time and dose effects of LAP on LPS-induced lethality (Example 14)", "type": "in vivo, CD1 mice", "conditions": "1 mg LPS i.p.", "description": "To induce lethal endotoxemia, the mice were injected i.p. with 1 mg lipopolysaccharide (LPS, Cod. L6011, lot 112K4063, Sigma Chimica, Milan, Italy). LAP was provided by Lajor BioTech (Pittsburgh, Pa. USA), dissolved volume/volume in trifluoroacetic acid 0.1% in water and Na2HPO4 and injected ip in a final volume of 100 mcl.\nStatistical analysis was performed by chi-square for lethality and one way ANOVA for cytokine measurements. P values lower than 0.05 were taken as significant."}, "[1]": {"test_system": "auto-immune diabetes in the NOD mouse", "assay": "LAP in development of insulitis and auto-immune diabetes in NOD mouse (Example 16)", "text": "(§3) Female NOD mice (Charles River, Calco, Italy) were maintained under standard laboratory conditions (non-specific pathogen free) with free access to food and water. During the study period of diabetes prevention the mice were screened for diabetes development twice a week by means of glycosuria followed, when positive, by measurement of glycaemia. Mice are diagnosed as diabetic when fasting glycaemia is above 12 mmol/l for 2 consecutive days.\n(§4) Euglycaemic female NOD mice were randomly allocated into 4 different groups receiving either LAP or vehicle starting at the 4th or at the 12th week of age. Because insulitis is virtually absent in 4-week-old NOD mice and is actively ongoing at 12 weeks, this approach allowed us to investigate the effects of LAP-treatment in both the early and late diabetogenic stages of the NOD mouse. The readout of the early prohylactic treatment was to evaluate the effect of LAP on development of insulitis, while the readout of the late prophylactic treatment was to evaluate the effect of LAP on the incidence of clinically overt diabetes.\n(§5) For the early prophylactic treatment 4-week-old NOD mice were treated with either 10 mcg LAP (dissolved and diluted [100 mcl final volume] as described in Example 14 and 15) or 100 mcl vehicle, daily, six times weekly until the age of 14 weeks. At this point, the euglycaemic mice were sacrificed and their pancreatic specimens collected for histological examination of insulitis.\n(§6) For the late prophylactic treatment, 12-week-old NOD mice were randomly divided into two experimental groups, one treated with LAP and the other with vehicle, under the same experimental regime described for the early prophylactic treatment.\n(§7) Histological examination of the pancreatic islets was performed in a blind fashion by two pathologists unaware of the status and/or the treatment of the animals, as described previously (See 16-3 to 16-5). The degree of mononuclear cell infiltration is graded as follows: 0, no infiltrate; 1, peri-ductular infiltrate; 2, peri-islet infiltrate; 3, intra-islet infiltrate; 4, intra-islet infiltrate associated with β-cell destruction. At least 12 islets are counted for each mouse. The mean score for each pancreas is calculated by dividing the total score by the numbers of islets."}, "[2]": {"test_system": "LPS-induced lethality in mice", "assay": "Potency of LAP in counteracting lethality induced by a DL100 dose of LPS (Example 3)", "type": "in vivo, CD1 mice", "conditions": "for Lethality 24 h / Lethality 24 h (dead/total) / Lethality 48 h / Lethality 48 h (dead/total) / Lethality 72 h / Lethality 72 h (dead/total): LPS 1 mg/mouse", "excerpt": "Synthetic peptide or Lajor Active Peptide (LAP) was synthesized chemically to produce the amino acid sequence of the previously-identified bioactive peptide contained in Fractions 2, 3 and 4 of the low molecular weight components of PLB. […] Mice treated with Fraction 4 prepared from PLB were used as positive controls.\nSix weeks old female CD1 mice (Charles River, Calco, Italy) were used. The mice were allowed to adapt one week to their environment before commencing the study. They were kept under standard laboratory condition with ad libitum food and water.\nThe mice were injected i.p. with 1 mg of lipopolysaccharide (LPS) (Sigma Chimica, Milan, Italy). Mortality was recorded every 24 hours up to 72 hours after challenge with LPS."}, "[3]": {"test_system": "auto-immune diabetes in the NOD mouse", "conditions": "in vivo", "text": "as §3, §4, §5, §6, §7"}}, "note": "Residues, ends and D or L forms follow the SMILES beside them.", "data": [{"smiles": "CC[C@H](C)[C@H](NC(=O)[C@H](CCC(=O)O)NC(=O)[C@@H](NC(=O)[C@H](C)NC(=O)[C@H](CO)NC(=O)[C@@H](NC(=O)[C@@H](N)CC(N)=O)C(C)C)C(C)C)C(=O)N[C@@H](C)C(=O)O", "note": "[LAP, NH2-NVSAVEIA-COOH] (H-NVSAVEIA-OH)", "values": [{"measurement": "CD4+CD25− T cell proliferation in response to antigen-pulsed APCs in the presence of the peptide", "setting": "CD4+CD25− T cells; 5 days co-culture", "value": "inhibited"}, {"measurement": "T cell proliferation in response to APCs pre-treated with the peptide", "setting": "CD4+CD25− T cells; APCs pre-treated for 24 hours", "value": "not affected"}, {"measurement": "LPS-induced blood levels of IL-10 (in words)", "setting": "IL-10; 10 mcg LAP, 2 and 8 hours after LPS", "value": "did not modify"}, {"measurement": "mice with detectable levels of IL-10 in the blood", "setting": "IL-10; T0, 1 hour after 10 mcg LAP, before LPS, 0 out of 10 controls", "value": "3 out of 10"}, {"measurement": "reduction of TNF-α blood levels vs. controls", "setting": "TNF-α; 2 hours after sublethal LPS (0.5 mg/mouse), p=0.01", "value": 37.3, "unit": "%"}, {"measurement": "reduction of TNF-α blood levels vs. controls", "setting": "TNF-α; 8 hours after sublethal LPS (0.5 mg/mouse), p=0.005", "value": 76.5, "unit": "%"}, {"measurement": "reduction of ALAT vs controls", "setting": "Con A-induced hepatitis; 8 hours after Con A", "value": 84.7, "unit": "%"}, {"measurement": "ALAT values", "setting": "Con A-induced hepatitis; LAP 1 hour prior to and one hour after Con A, 8 hours after Con A, mean ± SD", "value": "686 ± 197", "unit": "b U/L"}, {"measurement": "Lethality (dead before sacrifice/total)", "setting": "Con A-induced hepatitis; LAP 1 hour prior to and one hour after Con A, within 8 hours", "value": "1/15"}, {"measurement": "LPS-induced blood levels of IFN-γ (in words)", "setting": "IFN-γ", "value": "did not modify"}, {"measurement": "Lethality 72 h", "setting": "LPS-induced lethality; 1 mcg at −24, −1 h", "value": "(79%)"}, {"measurement": "Lethality 72 h (dead/total)", "setting": "LPS-induced lethality; 1 mcg at −24, −1 h", "value": "11/14"}, {"measurement": "Lethality 72 h", "setting": "LPS-induced lethality; 10 mcg at +1 h", "value": "(71%)"}, {"measurement": "Lethality 72 h (dead/total)", "setting": "LPS-induced lethality; 10 mcg at +1 h", "value": "10/14"}, {"measurement": "Lethality 72 h", "setting": "LPS-induced lethality; 10 mcg at −1, +1 h", "value": "(14%)"}, {"measurement": "Lethality 72 h (dead/total)", "setting": "LPS-induced lethality; 10 mcg at −1, +1 h", "value": "2/14"}, {"measurement": "Lethality 72 h", "setting": "LPS-induced lethality; 10 mcg at −24, −1 h", "value": "(14%)"}, {"measurement": "Lethality 72 h (dead/total)", "setting": "LPS-induced lethality; 10 mcg at −24, −1 h", "value": "2/14"}, {"measurement": "Lethality 72 h", "setting": "LPS-induced lethality; 20 mcg at −1, +1 h", "value": "(100%)"}, {"measurement": "Lethality 72 h (dead/total)", "setting": "LPS-induced lethality; 20 mcg at −1, +1 h", "value": "14/14"}, {"measurement": "NOD mice that developed diabetes during the treatment period", "setting": "[1]; early prophylaxis, 4 to 14 weeks of age, 2 of 8 vehicle controls", "value": "None and none"}, {"measurement": "insulitis score", "setting": "[1]; early prophylaxis, 10 mcg daily six times weekly from 4 to 14 weeks of age, vehicle 2±0.9", "value": "0.9±0.6"}, {"measurement": "azotemia and transaminases values vs controls", "setting": "[1]; mice sacrificed at week 14", "value": "no differences"}, {"measurement": "Lethality 24 h", "setting": "[2]; 2.5 mcg at −24, −1 h", "value": 10, "unit": "%"}, {"measurement": "Lethality 24 h (dead/total)", "setting": "[2]; 2.5 mcg at −24, −1 h", "value": "(2/20)"}, {"measurement": "Lethality 48 h", "setting": "[2]; 2.5 mcg at −24, −1 h", "value": 35, "unit": "%"}, {"measurement": "Lethality 48 h (dead/total)", "setting": "[2]; 2.5 mcg at −24, −1 h", "value": "(7/20)"}, {"measurement": "Lethality 72 h", "setting": "[2]; 2.5 mcg at −24, −1 h", "value": 80, "unit": "%"}, {"measurement": "Lethality 72 h (dead/total)", "setting": "[2]; 2.5 mcg at −24, −1 h", "value": "(16/20)"}, {"measurement": "Lethality 24 h", "setting": "[2]; 10 mcg at −24, −1 h", "value": 10, "unit": "%"}, {"measurement": "Lethality 24 h (dead/total)", "setting": "[2]; 10 mcg at −24, −1 h", "value": "(2/20)"}, {"measurement": "Lethality 48 h", "setting": "[2]; 10 mcg at −24, −1 h", "value": 35, "unit": "%"}, {"measurement": "Lethality 48 h (dead/total)", "setting": "[2]; 10 mcg at −24, −1 h", "value": "(7/20)"}, {"measurement": "Lethality 72 h", "setting": "[2]; 10 mcg at −24, −1 h", "value": 50, "unit": "%"}, {"measurement": "Lethality 72 h (dead/total)", "setting": "[2]; 10 mcg at −24, −1 h", "value": "(10/20) c"}, {"measurement": "kinetic and cumulative rate of lethality (in words)", "setting": "[2]; different doses of LAP tested", "value": "unaffected"}, {"measurement": "cumulative rate of lethality (in words)", "setting": "[2]; prophylactic treatment with 10 ucg", "value": "markedly reduced"}, {"measurement": "tolerability of long-term administration (clinical appearance and behaviours)", "setting": "[3]", "value": "apparently well tolerated"}]}]}
